Experiments:
[1] = biological target: Mu-type opioid receptor (Homo sapiens) (UniProt P35372); conditions: Compound concentration 10.0 uM
[2] = biological target: Fibroblast growth factor receptor 1 (Homo sapiens) (UniProt P11362); conditions: Compound concentration 1000.0 nM
[3] = biological target: Serine/threonine-protein kinase 38 (Homo sapiens) (UniProt Q15208); conditions: Compound concentration 1000.0 nM
[4] = biological target: Aurora kinase B (Homo sapiens) (UniProt Q96GD4); conditions: Compound concentration 1000.0 nM
[5] = biological target: ALK tyrosine kinase receptor (Homo sapiens) (UniProt Q9UM73); conditions: Compound concentration 1000.0 nM
[6] = tested on: Receptor-type tyrosine-protein kinase FLT3 (Homo sapiens), P36888 [N841I]; conditions: Compound concentration 1000.0 nM
[7] = biological target: T1, Cytoplasmic tyrosine-protein kinase BMX (Homo sapiens) (UniProt P51813); conditions: Compound concentration 1000.0 nM
T1 sequence (whole entry): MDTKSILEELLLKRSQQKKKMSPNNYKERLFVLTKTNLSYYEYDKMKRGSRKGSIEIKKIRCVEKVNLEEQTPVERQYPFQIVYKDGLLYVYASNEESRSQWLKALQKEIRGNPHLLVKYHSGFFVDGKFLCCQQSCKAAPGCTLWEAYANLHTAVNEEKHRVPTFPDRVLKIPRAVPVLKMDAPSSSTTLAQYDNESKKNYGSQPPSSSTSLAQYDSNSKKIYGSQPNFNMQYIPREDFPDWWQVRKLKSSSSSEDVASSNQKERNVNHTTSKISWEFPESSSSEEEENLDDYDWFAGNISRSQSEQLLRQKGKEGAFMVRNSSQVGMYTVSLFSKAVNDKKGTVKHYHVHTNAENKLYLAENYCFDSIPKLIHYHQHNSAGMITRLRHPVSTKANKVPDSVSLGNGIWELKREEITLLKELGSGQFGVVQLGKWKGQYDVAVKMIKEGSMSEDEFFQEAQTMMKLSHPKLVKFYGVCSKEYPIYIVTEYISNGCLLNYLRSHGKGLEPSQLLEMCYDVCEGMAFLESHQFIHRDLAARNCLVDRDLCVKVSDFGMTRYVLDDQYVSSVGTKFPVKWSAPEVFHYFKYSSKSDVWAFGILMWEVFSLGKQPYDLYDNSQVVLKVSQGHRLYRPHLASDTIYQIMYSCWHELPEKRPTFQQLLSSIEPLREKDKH

[8] = biological target: Mitogen-activated protein kinase 8 (Homo sapiens) (UniProt P45983); conditions: Compound concentration 1000.0 nM
Chain of Mitogen-activated protein kinase 8 (Homo sapiens) (P45983 whole entry): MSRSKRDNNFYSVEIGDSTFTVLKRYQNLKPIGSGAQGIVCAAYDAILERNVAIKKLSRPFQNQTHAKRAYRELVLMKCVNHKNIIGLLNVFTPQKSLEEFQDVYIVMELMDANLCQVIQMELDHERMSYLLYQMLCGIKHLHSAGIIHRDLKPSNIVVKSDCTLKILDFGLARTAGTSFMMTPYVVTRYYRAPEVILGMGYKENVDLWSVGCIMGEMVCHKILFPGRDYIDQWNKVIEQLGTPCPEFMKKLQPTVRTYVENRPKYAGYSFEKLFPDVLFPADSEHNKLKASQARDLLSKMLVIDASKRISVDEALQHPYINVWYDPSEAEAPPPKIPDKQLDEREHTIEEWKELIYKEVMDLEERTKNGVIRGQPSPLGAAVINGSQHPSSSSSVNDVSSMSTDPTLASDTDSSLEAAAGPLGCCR

[9] = biological target: Serine/threonine-protein kinase PAK 2 (Homo sapiens) (UniProt Q13177); conditions: Compound concentration 1000.0 nM
[10] = biological target: Bone morphogenetic protein receptor type-1B (Homo sapiens) (UniProt O00238); conditions: Compound concentration 1000.0 nM
Chain of Bone morphogenetic protein receptor type-1B (Homo sapiens) (O00238 whole entry, canonical isoform): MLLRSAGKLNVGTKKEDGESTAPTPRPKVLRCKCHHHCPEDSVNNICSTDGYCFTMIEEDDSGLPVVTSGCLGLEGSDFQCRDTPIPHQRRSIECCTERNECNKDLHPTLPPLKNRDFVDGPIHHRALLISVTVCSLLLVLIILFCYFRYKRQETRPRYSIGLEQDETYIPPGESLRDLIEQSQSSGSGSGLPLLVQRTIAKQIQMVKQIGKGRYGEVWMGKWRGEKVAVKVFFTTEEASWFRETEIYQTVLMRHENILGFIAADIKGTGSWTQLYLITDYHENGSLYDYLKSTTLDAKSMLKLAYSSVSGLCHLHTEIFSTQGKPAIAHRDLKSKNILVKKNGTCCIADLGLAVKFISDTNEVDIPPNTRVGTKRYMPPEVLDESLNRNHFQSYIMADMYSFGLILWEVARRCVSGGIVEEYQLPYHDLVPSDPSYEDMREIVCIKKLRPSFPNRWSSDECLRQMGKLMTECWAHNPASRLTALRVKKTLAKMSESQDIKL

[11] = tested on: Phosphatidylinositol 4,5-bisphosphate 3-kinase catalytic subunit alpha isoform (Homo sapiens), P42336 [H1047Y]; conditions: Compound concentration 1000.0 nM
[12] = biological target: T2, Muscarinic acetylcholine receptor M2 (Homo sapiens) (UniProt P08172); conditions: Compound concentration 10.0 uM
T2 sequence (whole entry): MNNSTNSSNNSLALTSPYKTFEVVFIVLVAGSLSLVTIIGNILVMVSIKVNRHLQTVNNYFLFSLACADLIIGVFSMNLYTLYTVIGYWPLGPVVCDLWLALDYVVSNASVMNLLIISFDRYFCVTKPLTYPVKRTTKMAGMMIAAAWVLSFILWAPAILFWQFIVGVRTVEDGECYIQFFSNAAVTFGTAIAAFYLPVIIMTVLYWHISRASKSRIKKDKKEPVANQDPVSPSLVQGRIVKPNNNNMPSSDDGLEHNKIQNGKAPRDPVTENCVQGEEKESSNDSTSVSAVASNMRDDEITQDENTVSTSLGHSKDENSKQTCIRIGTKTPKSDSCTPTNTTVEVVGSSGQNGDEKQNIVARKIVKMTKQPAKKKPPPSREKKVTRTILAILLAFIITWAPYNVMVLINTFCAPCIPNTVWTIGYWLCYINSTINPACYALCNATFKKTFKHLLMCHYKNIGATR

[13] = tested on: Phosphatidylinositol 4,5-bisphosphate 3-kinase catalytic subunit alpha isoform (Homo sapiens), P42336 [E545K]; conditions: Compound concentration 1000.0 nM
[14] = biological target: Serine/threonine-protein kinase/endoribonuclease IRE1 (Homo sapiens) (UniProt O75460); conditions: Compound concentration 1000.0 nM
Chain of Serine/threonine-protein kinase/endoribonuclease IRE1 (Homo sapiens) (O75460 19-977 limits assumed): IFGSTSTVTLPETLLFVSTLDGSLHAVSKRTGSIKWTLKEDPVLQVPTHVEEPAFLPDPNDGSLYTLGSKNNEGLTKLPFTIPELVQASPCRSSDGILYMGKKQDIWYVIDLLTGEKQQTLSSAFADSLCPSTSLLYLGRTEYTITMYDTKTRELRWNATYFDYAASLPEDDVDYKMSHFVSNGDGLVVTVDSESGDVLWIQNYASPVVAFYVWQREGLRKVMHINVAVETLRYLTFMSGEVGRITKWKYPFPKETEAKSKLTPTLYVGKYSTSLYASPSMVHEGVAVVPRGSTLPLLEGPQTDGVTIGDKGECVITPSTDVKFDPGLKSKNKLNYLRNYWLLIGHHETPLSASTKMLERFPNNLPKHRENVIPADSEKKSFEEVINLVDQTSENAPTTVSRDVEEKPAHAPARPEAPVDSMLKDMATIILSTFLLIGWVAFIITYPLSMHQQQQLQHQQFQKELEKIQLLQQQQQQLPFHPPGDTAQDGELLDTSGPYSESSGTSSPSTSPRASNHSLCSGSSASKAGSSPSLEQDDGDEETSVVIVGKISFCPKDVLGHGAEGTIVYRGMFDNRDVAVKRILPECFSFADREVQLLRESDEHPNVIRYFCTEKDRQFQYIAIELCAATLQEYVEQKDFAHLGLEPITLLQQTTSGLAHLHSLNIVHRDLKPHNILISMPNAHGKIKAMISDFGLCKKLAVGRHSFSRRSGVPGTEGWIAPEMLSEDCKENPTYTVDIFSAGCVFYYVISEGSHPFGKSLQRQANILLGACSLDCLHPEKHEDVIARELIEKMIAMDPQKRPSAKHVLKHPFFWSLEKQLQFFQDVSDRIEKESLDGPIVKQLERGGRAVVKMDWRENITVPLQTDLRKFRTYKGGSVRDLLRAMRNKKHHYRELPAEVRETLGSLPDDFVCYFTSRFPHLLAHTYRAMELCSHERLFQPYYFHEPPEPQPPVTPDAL

[15] = biological target: Tyrosine-protein kinase Srms (Homo sapiens) (UniProt Q9H3Y6); conditions: Compound concentration 1000.0 nM
[16] = tested on: Mast/stem cell growth factor receptor Kit (Homo sapiens), P10721 [A829P]; conditions: Compound concentration 1000.0 nM
[17] = biological target: Ribosomal protein S6 kinase alpha-2 (Homo sapiens) (UniProt Q15349); conditions: Compound concentration 1000.0 nM
Chain of Ribosomal protein S6 kinase alpha-2 (Homo sapiens) (Q15349 whole entry): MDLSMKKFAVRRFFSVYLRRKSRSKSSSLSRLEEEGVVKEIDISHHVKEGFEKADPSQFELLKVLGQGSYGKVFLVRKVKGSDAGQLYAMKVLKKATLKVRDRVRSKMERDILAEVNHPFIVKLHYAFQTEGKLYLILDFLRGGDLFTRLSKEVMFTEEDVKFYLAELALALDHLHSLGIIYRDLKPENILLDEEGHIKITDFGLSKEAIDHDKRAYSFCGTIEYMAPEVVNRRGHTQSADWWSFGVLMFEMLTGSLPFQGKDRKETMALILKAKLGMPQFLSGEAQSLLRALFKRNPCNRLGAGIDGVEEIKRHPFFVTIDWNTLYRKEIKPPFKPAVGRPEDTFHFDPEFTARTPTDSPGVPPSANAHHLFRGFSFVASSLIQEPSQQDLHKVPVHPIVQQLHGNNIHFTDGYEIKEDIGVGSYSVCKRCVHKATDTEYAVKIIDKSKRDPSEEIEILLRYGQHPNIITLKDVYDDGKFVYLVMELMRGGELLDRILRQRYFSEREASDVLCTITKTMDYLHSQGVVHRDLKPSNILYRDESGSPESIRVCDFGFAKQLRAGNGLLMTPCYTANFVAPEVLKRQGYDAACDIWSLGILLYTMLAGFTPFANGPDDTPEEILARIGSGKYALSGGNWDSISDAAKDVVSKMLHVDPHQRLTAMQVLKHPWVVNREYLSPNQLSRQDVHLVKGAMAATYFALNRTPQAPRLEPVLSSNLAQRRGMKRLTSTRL

[18] = biological target: Dual specificity protein kinase CLK3 (Homo sapiens) (UniProt P49761); conditions: Compound concentration 1000.0 nM
Chain of Dual specificity protein kinase CLK3 (Homo sapiens) (P49761 whole entry, looked up): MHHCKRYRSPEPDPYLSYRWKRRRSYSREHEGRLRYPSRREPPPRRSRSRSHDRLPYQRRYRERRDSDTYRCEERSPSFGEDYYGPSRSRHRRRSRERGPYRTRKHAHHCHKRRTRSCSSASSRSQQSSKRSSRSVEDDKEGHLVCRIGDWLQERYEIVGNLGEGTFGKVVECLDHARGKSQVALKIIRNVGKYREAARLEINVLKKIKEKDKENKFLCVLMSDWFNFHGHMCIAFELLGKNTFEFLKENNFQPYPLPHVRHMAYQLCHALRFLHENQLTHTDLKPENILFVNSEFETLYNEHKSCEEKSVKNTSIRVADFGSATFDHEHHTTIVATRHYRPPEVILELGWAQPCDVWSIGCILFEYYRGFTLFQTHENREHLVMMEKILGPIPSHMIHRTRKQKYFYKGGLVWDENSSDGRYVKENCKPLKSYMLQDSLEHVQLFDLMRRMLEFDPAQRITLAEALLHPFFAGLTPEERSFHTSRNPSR

[19] = biological target: Bone morphogenetic protein receptor type-1A (Homo sapiens) (UniProt P36894); conditions: Compound concentration 1000.0 nM
Chain of Bone morphogenetic protein receptor type-1A (Homo sapiens) (P36894 whole entry): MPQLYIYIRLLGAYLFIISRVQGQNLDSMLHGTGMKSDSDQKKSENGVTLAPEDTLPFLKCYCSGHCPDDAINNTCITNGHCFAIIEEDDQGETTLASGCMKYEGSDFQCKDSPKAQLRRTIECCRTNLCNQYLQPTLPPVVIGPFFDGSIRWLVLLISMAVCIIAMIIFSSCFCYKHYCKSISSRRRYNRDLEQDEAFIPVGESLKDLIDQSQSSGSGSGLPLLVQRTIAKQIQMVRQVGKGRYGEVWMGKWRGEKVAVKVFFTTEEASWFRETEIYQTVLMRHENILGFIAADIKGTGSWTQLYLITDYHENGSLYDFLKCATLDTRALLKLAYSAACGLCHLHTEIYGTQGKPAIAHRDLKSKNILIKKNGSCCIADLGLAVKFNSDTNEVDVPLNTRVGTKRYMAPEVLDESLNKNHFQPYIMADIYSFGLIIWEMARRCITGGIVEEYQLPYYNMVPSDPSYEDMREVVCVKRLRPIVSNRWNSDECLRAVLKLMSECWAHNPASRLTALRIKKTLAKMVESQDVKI

[20] = biological target: Serine/threonine-protein kinase N1 (Homo sapiens) (UniProt Q16512); conditions: Compound concentration 1000.0 nM
Chain of Serine/threonine-protein kinase N1 (Homo sapiens) (Q16512 2-942 limits assumed): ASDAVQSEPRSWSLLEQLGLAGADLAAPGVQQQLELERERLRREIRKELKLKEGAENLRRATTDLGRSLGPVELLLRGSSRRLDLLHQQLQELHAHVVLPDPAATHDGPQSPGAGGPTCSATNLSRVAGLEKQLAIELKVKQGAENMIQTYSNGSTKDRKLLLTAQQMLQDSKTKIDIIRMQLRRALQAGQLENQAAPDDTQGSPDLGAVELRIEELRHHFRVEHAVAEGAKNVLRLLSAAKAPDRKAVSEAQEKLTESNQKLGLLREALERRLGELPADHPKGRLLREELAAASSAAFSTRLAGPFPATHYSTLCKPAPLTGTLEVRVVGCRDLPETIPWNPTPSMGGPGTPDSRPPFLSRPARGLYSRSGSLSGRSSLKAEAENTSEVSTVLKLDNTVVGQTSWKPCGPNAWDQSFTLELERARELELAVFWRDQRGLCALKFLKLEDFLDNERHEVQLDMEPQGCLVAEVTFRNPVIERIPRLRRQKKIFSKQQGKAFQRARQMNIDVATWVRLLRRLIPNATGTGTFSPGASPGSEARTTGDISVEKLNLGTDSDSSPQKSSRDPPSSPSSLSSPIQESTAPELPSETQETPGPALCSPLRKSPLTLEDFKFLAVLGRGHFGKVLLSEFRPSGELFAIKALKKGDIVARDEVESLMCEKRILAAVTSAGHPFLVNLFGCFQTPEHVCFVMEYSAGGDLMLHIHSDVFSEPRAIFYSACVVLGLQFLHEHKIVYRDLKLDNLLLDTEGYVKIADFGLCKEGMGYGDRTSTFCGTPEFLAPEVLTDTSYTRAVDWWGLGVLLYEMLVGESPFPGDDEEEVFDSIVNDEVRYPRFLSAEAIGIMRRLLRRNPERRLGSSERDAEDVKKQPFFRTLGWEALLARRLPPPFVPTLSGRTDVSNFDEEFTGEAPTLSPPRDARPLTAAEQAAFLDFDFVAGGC

[21] = biological target: Serine/threonine-protein kinase 16 (Homo sapiens) (UniProt O75716); conditions: Compound concentration 1000.0 nM

Chain of Mu-type opioid receptor (Homo sapiens) (P35372 whole entry): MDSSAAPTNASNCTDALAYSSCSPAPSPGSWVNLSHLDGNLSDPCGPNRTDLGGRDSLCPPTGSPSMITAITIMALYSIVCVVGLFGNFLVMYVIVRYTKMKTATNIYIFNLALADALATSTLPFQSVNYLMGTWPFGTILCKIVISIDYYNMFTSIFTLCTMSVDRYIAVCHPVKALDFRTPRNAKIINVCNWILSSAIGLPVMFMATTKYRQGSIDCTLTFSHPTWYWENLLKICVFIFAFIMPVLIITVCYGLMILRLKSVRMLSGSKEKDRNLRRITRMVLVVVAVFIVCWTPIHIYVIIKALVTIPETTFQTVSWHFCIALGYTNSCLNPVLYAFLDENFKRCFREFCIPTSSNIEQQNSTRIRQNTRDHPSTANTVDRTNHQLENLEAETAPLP

| SMILES | inhibition [1] [%] | residual activity [2] [%] | residual activity [3] [%] | residual activity [4] [%] | residual activity [5] [%] | residual activity [6] [%] | residual activity [7] [%] | residual activity [8] [%] | residual activity [9] [%] | residual activity [10] [%] | residual activity [11] [%] | inhibition [12] [%] | residual activity [13] [%] | residual activity [14] [%] | residual activity [15] [%] | residual activity [16] [%] | residual activity [17] [%] | residual activity [18] [%] | residual activity [19] [%] | residual activity [20] [%] | also measured |
| --- | --- | --- | --- | --- | --- | --- | --- | --- | --- | --- | --- | --- | --- | --- | --- | --- | --- | --- | --- | --- | --- |
| CN(C)C(=O)Cn1cc(-c2nc(C3(c4ccc(-c5cnc(N)nc5)cc4)CC3)no2)cn1 [BI 0153] | 12.6 | 72 | 84 | 41 | 77 | 100 | 88 | 78 | 100 | 99 | 94 | -0.311 | 85 | 69 | 73 | 93 | 100 | 100 | 87 | 84 | residual activity [21]: 100% |
| CN(C)C(=O)Cn1cc(-c2nc([C@@](C)(c3ccc(-c4cnc(N)nc4)cc3)C3CC3)no2)cn1 [BI 665915] | 4.55 | 95 | 80 | 96 | 85 | 83 | 93 | 51 | 90 | 76 | 87 | -7.53 | 81 | 86 | 93 | 80 | 85 | 100 | 100 | 99 | residual activity [21]: 100% |

Source: ChEMBL document CHEMBL4507276 (2021)
